According to DBAASP:
Converted amounts (≈) assume the structure as drawn. “And” between values parts separate entries of the source, which are not always exact repeats. Equal values may be shown once.

Tests used:
Test in all cases: ≥ marks a high value that may be exact or a test limit, other limits are often not marked, values filed in µg/mL are converted to µM
[1] = test system: Staphylococcus epidermidis ATCC 12228
[2] = test system: Enterococcus faecalis ATCC 29212
Escherichia coli 078 = test system: Escherichia coli 078
Escherichia coli K99 = test system: Escherichia coli K99
Escherichia coli UB1005 = test system: Escherichia coli UB1005
[3] = test system: Staphylococcus aureus ATCC 25923
[4] = test system: Salmonella enterica subsp. enterica serovar Typhimurium ATCC 14028
[5] = test system: Staphylococcus aureus ATCC 29213
[6] = test system: Salmonella enterica subsp. enterica serovar Pullorum C79-13
Escherichia coli K88 = test system: Escherichia coli K88
[7] = test system: Salmonella enterica subsp. enterica serovar Typhimurium C77-31
[8] = test system: Bacillus subtilis CMCC 63501
[9] = test system: Escherichia coli ATCC 25922
[10] = test system: Streptococcus pyogenes ATCC 19615
[11] = test system: Pseudomonas aeruginosa ATCC 27853
Escherichia coli = test system: Escherichia coli
[12] = test system: Klebsiella pneumoniae ATCC 13883
Bacillus subtilis = test system: Bacillus subtilis
[13] = test system: Staphylococcus aureus ATCC BAA-1556
[14] = test system: Micrococcus luteus ATCC 9341
Escherichia coli K-12 = test system: Escherichia coli K-12
[15] = test system: Staphylococcus aureus USA 300
Micrococcus luteus = test system: Micrococcus luteus
[16] = test system: Pseudomonas syringae pv. syringae EPS 94
[17] = test system: Erwinia amylovora PMV 6076
[18] = test system: Candida albicans ATCC 90028
[19] = test system: Staphylococcus aureus NCTC 8325

**Q.** For `CC[C@H](C)[C@H](NC(=O)[C@H](Cc1c[nH]c2ccccc12)NC(=O)[C@H](CCCCN)NC(=O)[C@H](CC(C)C)NC(=O)[C@@H](NC(=O)[C@H](Cc1c[nH]c2ccccc12)NC(=O)CNC(=O)[C@@H](NC(=O)[C@H](CCCCN)NC(=O)[C@H](CCCCN)NC(=O)[C@H](CC(C)C)NC(=O)[C@@H](N)CCCN=C(N)N)[C@@H](C)CC)C(C)C)C(N)=O` [RLKKIGWVLKWI], which MIC [1] is on record?
**A.** 4 µM (≈ 6.16 µg/mL)

**Q.** And the MIC [2]?
**A.** 4 µM (≈ 6.16 µg/mL)

**Q.** What about the MIC (Escherichia coli 078) of the same molecule?
**A.** 4 µM (≈ 6.16 µg/mL)

**Q.** And the MIC (Escherichia coli K99)?
**A.** 4 µM (≈ 6.16 µg/mL)

**Q.** What about the MIC (Escherichia coli UB1005) of the same molecule?
**A.** 1 µM (≈ 1.54 µg/mL)

**Q.** What about the MIC [3] of the same molecule?
**A.** 4 µM (≈ 6.16 µg/mL)

**Q.** And the MIC [4]?
**A.** 4 µM (≈ 6.16 µg/mL)

**Q.** And the MIC [5]?
**A.** 4 µM (≈ 6.16 µg/mL)

**Q.** And the MIC [6]?
**A.** 1 µM (≈ 1.54 µg/mL)

**Q.** What about the MIC (Escherichia coli K88) of the same molecule?
**A.** 1 µM (≈ 1.54 µg/mL)

**Q.** What about the MIC [7] of the same molecule?
**A.** 4 µM (≈ 6.16 µg/mL)

**Q.** What about the MIC [8] of the same molecule?
**A.** 2 µM (≈ 3.08 µg/mL)

**Q.** And the MIC [9]?
**A.** 2 µM (≈ 3.08 µg/mL)

**Q.** `CC(C)[C@H](NC(=O)CNC(=O)[C@H](CCCN=C(N)N)NC(=O)[C@H](Cc1cnc[nH]1)NC(=O)[C@H](Cc1c[nH]c2ccccc12)NC(=O)[C@H](Cc1ccccc1)NC(=O)[C@H](Cc1cnc[nH]1)NC(=O)[C@H](Cc1ccc(O)cc1)NC(=O)[C@@H](N)Cc1ccc(O)cc1)C(=O)N[C@H](C(=O)N[C@@H](CCCCN)C(=O)N[C@@H](CCCN=C(N)N)C(=O)O)[C@@H](C)O` [YYHFWHRGVTKR] was tested. Which MIC [2] did it give?
**A.** 30 µM (≈ 49.5 µg/mL)

**Q.** What about the MIC [10] of the same molecule?
**A.** ≥ 70 µM

**Q.** What about the MIC [11] of the same molecule?
**A.** 40 µM (≈ 66 µg/mL)

**Q.** And the MIC (Escherichia coli)?
**A.** 40 µM (≈ 66 µg/mL)

**Q.** And the MIC [3]?
**A.** 30 µM (≈ 49.5 µg/mL)

**Q.** What about the MIC [12] of the same molecule?
**A.** ≥ 40 µM

**Q.** What about the MIC (Bacillus subtilis) of the same molecule?
**A.** ≥ 40 µM

**Q.** And the MIC [4]?
**A.** 40 µM (≈ 66 µg/mL)

**Q.** Which MIC [13] does the source give for `CC(C)C[C@H](NC(=O)[C@H](CCCCN)NC(=O)[C@H](CC(C)C)NC(=O)[C@H](CC(C)C)NC(=O)[C@H](CC(C)C)NC(=O)[C@H](CCCCN)NC(=O)[C@@H](N)CC(C)C)C(N)=O` [LKLLLKL] here?
**A.** ≥ 100 µM

**Q.** How did the MIC [13] turn out when `CC[C@H](C)[C@H](NC(=O)[C@H](Cc1c[nH]c2ccccc12)NC(=O)[C@H](CC(C)C)NC(=O)[C@H](CCCN=C(N)N)NC(=O)[C@H](Cc1c[nH]c2ccccc12)NC(=O)[C@@H](N)CCCCN)C(=O)N[C@@H](CCCN=C(N)N)C(=O)N[C@@H](Cc1c[nH]c2ccccc12)C(=O)N[C@@H](CC(C)C)C(N)=O` [KWRLWIRWL] was run?
**A.** 12.5 µM (≈ 16.9 µg/mL)

**Q.** `CC[C@H](C)[C@H](N)C(=O)N[C@@H](CC(C)C)C(=O)N1CCC[C@H]1C(=O)N[C@@H](Cc1c[nH]c2ccccc12)C(=O)N[C@@H](CCCCN)C(=O)N[C@@H](Cc1c[nH]c2ccccc12)C(=O)N1CCC[C@H]1C(=O)N[C@@H](Cc1c[nH]c2ccccc12)C(=O)N[C@@H](Cc1c[nH]c2ccccc12)C(=O)N1CCC[C@H]1C(N)=O` [ILPWKWPWWP] was tested. Which MIC [14] did it give?
**A.** 1.6 µM (≈ 2.25 µg/mL)

**Q.** Which MIC (Escherichia coli K-12) does the source give for `CC[C@H](C)[C@H](NC(=O)[C@H](C)NC(=O)[C@H](CCCCN)NC(=O)[C@H](Cc1ccccc1)NC(=O)CN)C(=O)N[C@H](C(=O)N[C@@H](CCC(N)=O)C(=O)N[C@@H](CCCN=C(N)N)C(=O)N[C@H](C(=O)N[C@@H](CCCCN)C(=O)N[C@@H](CC(=O)O)C(=O)N[C@@H](Cc1ccccc1)C(=O)N[C@@H](CC(C)C)C(=O)N[C@@H](CCCN=C(N)N)C(=O)N[C@@H](CC(N)=O)C(=O)N[C@@H](CC(C)C)C(=O)N[C@H](C(N)=O)C(C)C)[C@@H](C)CC)C(C)C` [GFKAIVQRIKDFLRNLV] here?
**A.** 15 µM (≈ 30.2 µg/mL)

**Q.** What about the MIC [15] of the same molecule?
**A.** 7.5 µM and 3.1 µM

**Q.** How did the MIC [14] turn out when `CC[C@H](C)[C@H](N)C(=O)N[C@@H](CC(C)C)C(=O)N1CCC[C@H]1C(=O)N[C@@H](Cc1c[nH]c2ccccc12)C(=O)N[C@@H](CCCCN)C(=O)N[C@@H](Cc1c[nH]c2ccccc12)C(=O)N1CCC[C@H]1C(=O)N[C@@H](Cc1c[nH]c2ccccc12)C(N)=O` [ILPWKWPW] was run?
**A.** 6.3 µM (≈ 7.08 µg/mL)

**Q.** For `CC[C@H](C)[C@H](NC(=O)[C@H](Cc1c[nH]c2ccccc12)NC(=O)[C@H](CCCN=C(N)N)NC(=O)[C@H](CCCN=C(N)N)NC(=O)[C@H](Cc1c[nH]c2ccccc12)NC(=O)[C@@H](N)CCCCN)C(N)=O` [KWRRWI], which MIC [13] is on record?
**A.** ≥ 100 µM

**Q.** How did the MIC [13] turn out when `CC[C@H](C)[C@H](NC(=O)[C@H](Cc1c[nH]c2ccccc12)NC(=O)[C@H](CCCN=C(N)N)NC(=O)[C@H](CCCN=C(N)N)NC(=O)[C@H](Cc1c[nH]c2ccccc12)NC(=O)[C@@H](N)CCCCN)C(=O)N[C@@H](C)C(=O)N[C@@H](Cc1c[nH]c2ccccc12)C(=O)N[C@@H](CC(C)C)C(N)=O` [KWRRWIAWL] was run?
**A.** 12.5 µM (≈ 16.4 µg/mL)

**Q.** Which MIC [13] does the source give for `CC(C)C[C@H](NC(=O)[C@H](CC(C)C)NC(=O)[C@H](CCCCN)NC(=O)[C@H](CC(C)C)NC(=O)[C@H](CC(C)C)NC(=O)[C@H](Cc1c[nH]c2ccccc12)NC(=O)[C@@H](N)CCCCN)C(N)=O` [KWLLKLL] here?
**A.** ≥ 100 µM

**Q.** Which MIC (Micrococcus luteus) does the source give for `CC[C@H](C)[C@H](NC(=O)[C@H](CO)NC(=O)[C@H](CO)NC(=O)[C@@H](NC(=O)[C@H](CC(C)C)NC(=O)CN)C(C)C)C(=O)NCC(=O)N[C@@H](CCCN=C(N)N)C(=O)N[C@@H](C)C(=O)N[C@@H](CC(C)C)C(=O)NCC(=O)NCC(=O)N[C@@H](CC(C)C)C(=O)N[C@@H](CC(C)C)C(=O)N[C@@H](C)C(=O)N[C@@H](CC(=O)O)C(=O)N[C@H](C(=O)N[C@H](C(=O)N[C@@H](CCCCN)C(=O)N[C@@H](CO)C(=O)N[C@@H](CCCCN)C(=O)N[C@@H](CCC(=O)O)C(=O)N[C@@H](CCC(N)=O)C(=O)N1CCC[C@H]1C(=O)N[C@@H](C)C(=O)O)C(C)C)C(C)C` [GLVSSIGRALGGLLADVVKSKEQPA] here?
**A.** 20.3 µM (≈ 50 µg/mL)

**Q.** Which MIC [13] does the source give for `CC(C)C[C@H](NC(=O)[C@H](CCCN=C(N)N)NC(=O)[C@H](Cc1c[nH]c2ccccc12)NC(=O)[C@H](CC(C)C)NC(=O)[C@H](Cc1c[nH]c2ccccc12)NC(=O)[C@H](Cc1c[nH]c2ccccc12)NC(=O)[C@H](CC(C)C)NC(=O)[C@H](Cc1c[nH]c2ccccc12)NC(=O)[C@@H](N)Cc1c[nH]c2ccccc12)C(N)=O` [WWLWWLWRL] here?
**A.** 3.12 µM (≈ 4.51 µg/mL)

**Q.** What does the source list for `CC[C@H](C)[C@H](NC(=O)[C@H](CCCCN)NC(=O)[C@H](CCCCN)NC(=O)[C@H](Cc1ccccc1)NC(=O)[C@H](CC(C)C)NC(=O)[C@H](CCCCN)NC(=O)[C@H](CCCCN)NC(=O)[C@@H](N)CO)C(=O)N[C@@H](CC(C)C)C(=O)N[C@@H](CCCCN)C(=O)N[C@@H](Cc1ccc(O)cc1)C(=O)N[C@@H](CC(C)C)C(=O)N[C@@H](C)C(=O)NCC(=O)N1CCC[C@H]1C(=O)N[C@@H](C)C(=O)N[C@@H](CCCCN)C(=O)N[C@@H](Cc1ccccc1)C(=O)N[C@@H](CC(C)C)C(=O)N[C@@H](Cc1cnc[nH]1)C(=O)N[C@@H](CO)C(=O)N[C@@H](C)C(=O)N[C@@H](CCCCN)C(=O)O` [SKKLFKKILKYLAGPAKFLHSAK]?
**A.** MIC [16]: 3.54 µM (≈ 9.25 µg/mL); MIC [17]: 3.54 µM (≈ 9.25 µg/mL)

**Q.** For `CSCC[C@H](NC(=O)CNC(=O)CNC(=O)[C@H](CCCCN)NC(=O)[C@H](C)NC(=O)[C@H](Cc1ccccc1)NC(=O)[C@H](CCCCN)NC(=O)[C@H](CCCCN)NC(=O)[C@H](CC(C)C)NC(=O)[C@H](C)NC(=O)[C@H](CC(=O)O)NC(=O)[C@H](CC(C)C)NC(=O)[C@H](Cc1ccccc1)NC(=O)[C@@H](NC(=O)CN)C(C)C)C(=O)N[C@@H](CC(N)=O)C(=O)N[C@@H](C)C(=O)N[C@H](C(=O)N[C@@H](CC(C)C)C(=O)N[C@@H](CC(N)=O)C(=O)N1CCC[C@H]1C(=O)N[C@@H](CCCCN)C(=O)O)C(C)C` [GVFLDALKKFAKGGMNAVLNPK], which MIC [18] is on record?
**A.** ≥ 100 µM

**Q.** And the MIC [19]?
**A.** ≥ 100 µM

**Q.** And the MIC [9]?
**A.** 18 µM (≈ 41.7 µg/mL)
